{"source": "patent US20140106026A1", "about": "“ARTICLE AND METHOD FOR TREATING, PREVENTING AND AMELIORATING ALCOHOL-INDUCED WERNICKE-KORSAKOFF SYNDROME” (priority 2012, published 2014)", "origin": "cited, not measured here", "key": {"[1]": {"conditions": "oral intake"}, "[2]": {"assay": "not given", "remark": "listed apart in the source"}, "[3]": {"assay": "not given", "remark": "listed apart in the source"}}, "note": "Like-named read-outs stand apart in the source and are kept apart here.", "data": [{"compound": "Cc1ncc(C[n+]2csc(CCO)c2C)c(N)n1", "note": "[Thiamine]", "values": [{"measurement": "stability", "setting": "at acidic pH", "result": "stable"}, {"measurement": "stability", "setting": "in alkaline solutions", "result": "unstable"}, {"measurement": "stability towards sulfite", "setting": "sulfite as contained in wine and cordials", "result": "degrades"}, {"measurement": "intake above which decline in thiamine absorption occurs", "setting": "[1]", "result": "above 5 mg"}, {"measurement": "half-life, in vivo", "setting": "[2]", "result": "approximately two"}, {"measurement": "solubility", "setting": "[3]; in acetone, ether, chloroform, and benzene", "result": "practically insoluble"}, {"measurement": "solubility", "setting": "[3]; in water, methanol, and glycerol", "result": "soluble"}]}]}
